“Also recorded” adds a separate entry of the source.
Columns and labels:
[1] = test system: LNCaP cells transduced with AR F876L construct; test: Anti-proliferation in LNCaP F876L (CellTiterGlo); assay type: cell-based; details: Charcoal Stripped Serum media, 7 days
Method: FIG. 3. Anti-proliferation in LNCaP F876L. […] LNCaP cells transduced with AR F876L construct were cultured in Charcoal Stripped Serum containing media.
LNCaP cells transduced with AR F876L construct were cultured in Charcoal Stripped Serum containing media. […] CellTiterGlo reagent (Promega) was employed to assess proliferation.

[2] = molecular target: T1, AR (Homo sapiens, UniProt P10275+P40337, T878A); test: AR degradation of PROTAC is E3 ligase dependent (LNCaP cells); assay type: cell-based; details: 24 hours
T1 construct: endogenous in cells; host or cells: LNCaP cells
T1 sequence (P10275 whole entry T878A): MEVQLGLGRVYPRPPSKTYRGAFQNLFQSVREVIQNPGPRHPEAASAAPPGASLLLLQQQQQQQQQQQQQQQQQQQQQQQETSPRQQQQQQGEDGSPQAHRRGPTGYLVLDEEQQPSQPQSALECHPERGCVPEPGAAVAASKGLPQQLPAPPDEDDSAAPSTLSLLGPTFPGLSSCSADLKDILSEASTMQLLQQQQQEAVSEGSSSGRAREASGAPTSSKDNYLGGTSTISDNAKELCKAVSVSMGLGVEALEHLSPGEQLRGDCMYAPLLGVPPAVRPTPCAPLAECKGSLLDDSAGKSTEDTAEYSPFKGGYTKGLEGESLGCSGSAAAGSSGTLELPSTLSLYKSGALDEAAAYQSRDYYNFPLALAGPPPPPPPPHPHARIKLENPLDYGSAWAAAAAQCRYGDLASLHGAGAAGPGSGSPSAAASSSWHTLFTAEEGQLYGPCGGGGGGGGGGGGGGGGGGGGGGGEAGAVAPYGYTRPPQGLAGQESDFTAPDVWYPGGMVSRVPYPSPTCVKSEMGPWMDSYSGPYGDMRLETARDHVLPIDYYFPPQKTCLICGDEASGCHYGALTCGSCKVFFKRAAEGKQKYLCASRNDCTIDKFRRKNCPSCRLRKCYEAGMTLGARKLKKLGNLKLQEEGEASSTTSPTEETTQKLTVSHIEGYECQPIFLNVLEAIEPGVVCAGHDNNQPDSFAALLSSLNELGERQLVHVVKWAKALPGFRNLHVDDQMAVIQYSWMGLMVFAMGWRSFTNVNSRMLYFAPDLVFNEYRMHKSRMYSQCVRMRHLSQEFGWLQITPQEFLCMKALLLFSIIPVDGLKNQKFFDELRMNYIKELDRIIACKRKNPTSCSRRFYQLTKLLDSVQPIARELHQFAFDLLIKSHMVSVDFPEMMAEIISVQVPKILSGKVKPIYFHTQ
T1 sequence (P40337 whole entry): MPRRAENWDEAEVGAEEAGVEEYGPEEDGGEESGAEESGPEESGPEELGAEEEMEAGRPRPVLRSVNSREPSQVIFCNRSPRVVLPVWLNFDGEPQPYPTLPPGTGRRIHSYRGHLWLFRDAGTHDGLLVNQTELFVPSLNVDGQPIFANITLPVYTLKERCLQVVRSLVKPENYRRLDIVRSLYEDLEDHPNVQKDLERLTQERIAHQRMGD
T1 sequence (Q15369 whole entry partner): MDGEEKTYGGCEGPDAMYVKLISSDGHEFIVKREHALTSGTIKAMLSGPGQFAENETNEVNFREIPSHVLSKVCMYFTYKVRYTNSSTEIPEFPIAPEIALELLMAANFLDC
T1 sequence (Q15370 whole entry partner): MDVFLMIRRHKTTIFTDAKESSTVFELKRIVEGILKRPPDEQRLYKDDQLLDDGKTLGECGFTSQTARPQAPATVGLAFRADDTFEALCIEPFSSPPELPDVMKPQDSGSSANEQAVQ
T1 sequence (Q13617 whole entry partner): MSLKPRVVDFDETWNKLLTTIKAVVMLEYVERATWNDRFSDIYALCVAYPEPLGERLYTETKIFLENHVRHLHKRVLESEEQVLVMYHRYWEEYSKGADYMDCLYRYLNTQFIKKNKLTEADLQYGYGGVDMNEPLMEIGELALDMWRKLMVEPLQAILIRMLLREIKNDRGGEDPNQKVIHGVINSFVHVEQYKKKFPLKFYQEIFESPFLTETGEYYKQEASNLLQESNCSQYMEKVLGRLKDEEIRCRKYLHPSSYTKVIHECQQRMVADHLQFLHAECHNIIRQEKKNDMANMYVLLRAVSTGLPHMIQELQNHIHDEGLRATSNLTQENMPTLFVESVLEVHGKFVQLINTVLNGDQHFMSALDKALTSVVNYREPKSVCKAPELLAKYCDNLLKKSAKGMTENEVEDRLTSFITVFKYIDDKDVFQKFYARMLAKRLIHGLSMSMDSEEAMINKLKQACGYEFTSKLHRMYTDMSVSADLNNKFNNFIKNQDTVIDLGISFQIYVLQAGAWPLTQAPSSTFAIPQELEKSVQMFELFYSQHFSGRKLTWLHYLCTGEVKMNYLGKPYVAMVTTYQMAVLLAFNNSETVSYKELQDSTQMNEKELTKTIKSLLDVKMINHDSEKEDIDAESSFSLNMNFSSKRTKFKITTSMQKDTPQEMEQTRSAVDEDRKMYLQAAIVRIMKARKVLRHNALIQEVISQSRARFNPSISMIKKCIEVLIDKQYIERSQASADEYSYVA
T1 sequence (P62877 whole entry partner): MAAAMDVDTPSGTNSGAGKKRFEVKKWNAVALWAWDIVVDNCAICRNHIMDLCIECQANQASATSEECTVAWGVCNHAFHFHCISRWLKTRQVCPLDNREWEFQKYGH
Source text: FIG. 7A and FIG. 7B. AR degradation of PROTAC is E3 ligase dependent.

[3] = test system: Androgen Receptor; test: Androgen Receptor ELISA assay (PathScan AR ELISA) in LNCaP and/or VCaP cells; assay type: cell-based; details: highest percentage of Androgen Receptor degradation observed
[4] = test system: prostate; test: Prostate involution in C57B6 mouse model; assay type: in vivo; details: 12-week old male C57BL/6 mice; IP, QD, 1 and 3 mpk for 10 days
Source text: FIG. 5. Prostate involution in C57B6 mouse model.

[5] = test system: VCaP xenograft; test: Tumor growth inhibition in VCaP xenograft model; assay type: in vivo; details: castrated CB17 scid mice with VCaP tumors; enzalutamide PO, QD, 30 mpk; Example 163 IP, QD, 30, 10 and 3 mpk
Source text: FIG. 6. Tumor growth inhibition in VCaP xenograft model. VCaP cells were implanted into CB17 scid mice subcutaneously. Once the tumors were palpable, the mice were castrated, leading to temporary tumor stasis.
VCaP cells were implanted into CB17 scid mice subcutaneously. Once the tumors were palpable, the mice were castrated, leading to temporary tumor stasis.

Cc1ncsc1-c1ccc(CNC(=O)[C@@H]2C[C@@H](O)CN2C(=O)[C@@H](NC(=O)COCCCOCCCCCOc2ccc(N3C(=S)N(c4ccc(C#N)c(C(F)(F)F)c4)C(=O)C3(C)C)cc2)C(C)(C)C)cc1 [Example 1, (2S,4R)-1-((S)-2-(2-(3-(5-(4-(3-(4-cyano-3-(trifluoromethyl)phenyl)-5,5-dimethyl-4-oxo-2-thioxoimidazolidin-1-yl)phenoxy)pentyloxy)propoxy)acetamido)-3,3-dimethylbutanoyl)-4-hydroxy-N-(4-(4-methylthiazol-5-yl)benzyl)pyrrolidine-2-carboxamide]
proliferation of LNCaP F876L cells (agonist activity) [1]: did not exhibit agonist activity; also recorded: Anti-proliferation in LNCaP F876L cells observed
AR degradation in LNCaP cells [2]: significant degradation of AR
AR degradation in LNCaP cells in the presence of VHL E3 ligase ligand compound B ([2]; 10 uM compound B): greatly diminishes the AR degradation activity

Cc1ncsc1-c1ccc(CNC(=O)[C@@H]2C[C@@H](O)CN2C(=O)[C@@H](NC(=O)COCCOCCOc2ccc(-c3ccc(N4C(=S)N(c5ccc(C#N)c(C(F)(F)F)c5)C(=O)C4(C)C)cc3)cc2)C(C)(C)C)cc1 [Example 67, (2S,4R)-1-((S)-2-(2-(2-(2-(4′-(3-(4-cyano-3-(trifluoromethyl)phenyl)-5,5-dimethyl-4-oxo-2-thioxoimidazolidin-1-yl)biphenyl-4-yloxy)ethoxy)ethoxy)acetamido)-3,3-dimethylbutanoyl)-4-hydroxy-N-(4-(4-methylthiazol-5-yl)benzyl)pyrrolidine-2-carboxamide]
LNCaP Dmax (%) [3]: 72.1%

Cc1ncsc1-c1ccc(CNC(=O)[C@@H]2C[C@@H](O)CN2C(=O)[C@@H](NC(=O)COCCCCOc2ccc(C(=O)N[C@H]3C(C)(C)[C@H](Oc4ccc(C#N)c(Cl)c4)C3(C)C)cc2)C(C)(C)C)cc1 [Example 163, (2S,4R)-1-[(2S)-3,3-dimethyl-2-{2-[4-(4-{[trans-3-(3-chloro-4-cyanophenoxy)-2,2,4,4-tetramethylcyclobutyl]carbamoyl}phenoxy)butoxy]acetamido}butanoyl]-4-hydroxy-N-{[4-(4-methyl-1,3-thiazol-5-yl)phenyl]methyl}pyrrolidine-2-carboxamide]
prostate weights (prostate involution) [4]: significant reduction in prostate weights; also recorded: significant prostate involution in mice at very low doses
tumor growth inhibition [5]: Tumor growth inhibition was observed in all treatment arms

CNC(=O)c1ccc(N2C(=S)N(c3ccc(C#N)c(C(F)(F)F)c3)C(=O)C2(C)C)cc1F [enzalutamide, reference compound]
tumor growth inhibition [5]: Tumor growth inhibition was observed in all treatment arms

Reference: patent US20160214972A1, “COMPOUNDS AND METHODS FOR THE TARGETED DEGRADATION OF ANDROGEN RECEPTOR” (Arvinas, Inc., priority 2015, published 2016)
